Laboratory results as given in ChEMBL document CHEMBL3885881, “DrugMatrix”.

Organism: Rattus norvegicus
Test: DrugMatrix - Regimen: Daily Repeat
Format: toxicity, organism-based, Sprague-Dawley
Set-up: regimen Daily Repeat, gender Male, age 6-8 weeks
Conditions: in vivo, po, route oral GAVAGE, vehicle .5 % CMC; for BASOPHIL / EOSINOPHIL / ERYTHROCYTE COUNT / HEMATOCRIT / HEMOGLOBIN / LEUKOCYTE COUNT / LYMPHOCYTE / MEAN CORPUSCULAR HEMOGLOBIN / MEAN CORPUSCULAR HEMOGLOBIN CONCENTRATION / MEAN CORPUSCULAR VOLUME / MONOCYTE / NEUTROPHIL / PLATELET COUNT: tissue Blood; for ALANINE AMINOTRANSFERASE / ALBUMIN / ALKALINE PHOSPHATASE / ASPARTATE AMINOTRANSFERASE / BLOOD UREA NITROGEN / CHLORIDE / CHOLESTEROL / CREATINE PHOSPHOKINASE / CREATININE / GLUCOSE / PHOSPHORUS / POTASSIUM / SODIUM / TOTAL BILIRUBIN / TOTAL PROTEIN: tissue Plasma
[1] = 0 mg/kg, 72 h, dose level Control, time 3 day
[2] = 0 mg/kg, 120 h, dose level Control, time 5 day
[3] = 1 mg/kg, 72 h, dose level Low, time 3 day
[4] = 1 mg/kg, 120 h, dose level Low, time 5 day
[5] = 22 mg/kg, 72 h, dose level High, time 3 day
[6] = 22 mg/kg, 120 h, dose level High, time 5 day

N=C(N)NC(=O)c1nc(Cl)c(N)nc1N [AMILORIDE]
BASOPHIL [1]: 0% | EOSINOPHIL [1]: 0.33% | ERYTHROCYTE COUNT [1]: 6.2 x10E6/uL | HEMATOCRIT [1]: 38.08% | HEMOGLOBIN [1]: 14.92 G/DL | LEUKOCYTE COUNT [1]: 11.13 x10E3/uL | LYMPHOCYTE [1]: 76% | MEAN CORPUSCULAR HEMOGLOBIN [1]: 24.1 pg | MEAN CORPUSCULAR HEMOGLOBIN CONCENTRATION [1]: 39.17 G/DL | MEAN CORPUSCULAR VOLUME [1]: 61.48 fL | MONOCYTE [1]: 3.83% | NEUTROPHIL [1]: 19.83% | PLATELET COUNT [1]: 1327.5 x10E3/uL | ALANINE AMINOTRANSFERASE [1]: 40.17 u/L | ALBUMIN [1]: 4.07 G/DL | ALKALINE PHOSPHATASE [1]: 372 u/L | ASPARTATE AMINOTRANSFERASE [1]: 67.17 u/L | BLOOD UREA NITROGEN [1]: 18.83 mg/dL | CHLORIDE [1]: 105.17 MEQ/L | CHOLESTEROL [1]: 78.17 mg/dL | CREATINE PHOSPHOKINASE [1]: 149.17 u/L | CREATININE [1]: 0.57 mg/dL | GLUCOSE [1]: 185.17 mg/dL | PHOSPHORUS [1]: 11.43 mg/dL | POTASSIUM [1]: 6.78 MEQ/L | SODIUM [1]: 152.83 MEQ/L | TOTAL BILIRUBIN [1]: 0.4 mg/dL | TOTAL PROTEIN [1]: 6.87 G/DL | BASOPHIL [2]: 0% | EOSINOPHIL [2]: 0% | ERYTHROCYTE COUNT [2]: 6.05 x10E6/uL | HEMATOCRIT [2]: 36.55% | HEMOGLOBIN [2]: 14.7 G/DL | LEUKOCYTE COUNT [2]: 11.8 x10E3/uL | LYMPHOCYTE [2]: 86.83% | MEAN CORPUSCULAR HEMOGLOBIN [2]: 24.37 pg | MEAN CORPUSCULAR HEMOGLOBIN CONCENTRATION [2]: 40.32 G/DL | MEAN CORPUSCULAR VOLUME [2]: 60.47 fL | MONOCYTE [2]: 0.83% | NEUTROPHIL [2]: 12.33% | PLATELET COUNT [2]: 1177 x10E3/uL | ALANINE AMINOTRANSFERASE [2]: 41.83 u/L | ALBUMIN [2]: 3.75 G/DL | ALKALINE PHOSPHATASE [2]: 377.5 u/L | ASPARTATE AMINOTRANSFERASE [2]: 60.83 u/L | BLOOD UREA NITROGEN [2]: 16 mg/dL | CHLORIDE [2]: 105.67 MEQ/L | CHOLESTEROL [2]: 67.83 mg/dL | CREATINE PHOSPHOKINASE [2]: 120.33 u/L | CREATININE [2]: 0.6 mg/dL | GLUCOSE [2]: 167.67 mg/dL | PHOSPHORUS [2]: 10.03 mg/dL | POTASSIUM [2]: 6.68 MEQ/L | SODIUM [2]: 150.5 MEQ/L | TOTAL BILIRUBIN [2]: 0.57 mg/dL | TOTAL PROTEIN [2]: 6.25 G/DL | BASOPHIL [3]: 0% | EOSINOPHIL [3]: 1.33% | ERYTHROCYTE COUNT [3]: 6.13 x10E6/uL | HEMATOCRIT [3]: 37.63% | HEMOGLOBIN [3]: 14.93 G/DL | LEUKOCYTE COUNT [3]: 12.73 x10E3/uL | LYMPHOCYTE [3]: 84% | MEAN CORPUSCULAR HEMOGLOBIN [3]: 24.37 pg | MEAN CORPUSCULAR HEMOGLOBIN CONCENTRATION [3]: 39.67 G/DL | MEAN CORPUSCULAR VOLUME [3]: 61.4 fL | MONOCYTE [3]: 0.67% | NEUTROPHIL [3]: 14% | PLATELET COUNT [3]: 1265 x10E3/uL | ALANINE AMINOTRANSFERASE [3]: 50 u/L | ALBUMIN [3]: 3.87 G/DL | ALKALINE PHOSPHATASE [3]: 414 u/L | ASPARTATE AMINOTRANSFERASE [3]: 63.67 u/L | BLOOD UREA NITROGEN [3]: 15.67 mg/dL | CHLORIDE [3]: 107 MEQ/L | CHOLESTEROL [3]: 81.33 mg/dL | CREATINE PHOSPHOKINASE [3]: 135.67 u/L | CREATININE [3]: 0.57 mg/dL | GLUCOSE [3]: 168.67 mg/dL | PHOSPHORUS [3]: 10.33 mg/dL | POTASSIUM [3]: 6.13 MEQ/L | SODIUM [3]: 152.33 MEQ/L | TOTAL BILIRUBIN [3]: 0.43 mg/dL | TOTAL PROTEIN [3]: 6.37 G/DL | BASOPHIL [4]: 0% | EOSINOPHIL [4]: 0% | ERYTHROCYTE COUNT [4]: 5.82 x10E6/uL | HEMATOCRIT [4]: 35.67% | HEMOGLOBIN [4]: 14.2 G/DL | LEUKOCYTE COUNT [4]: 12.4 x10E3/uL | LYMPHOCYTE [4]: 85.33% | MEAN CORPUSCULAR HEMOGLOBIN [4]: 24.43 pg | MEAN CORPUSCULAR HEMOGLOBIN CONCENTRATION [4]: 39.93 G/DL | MEAN CORPUSCULAR VOLUME [4]: 61.3 fL | MONOCYTE [4]: 2% | NEUTROPHIL [4]: 12.67% | PLATELET COUNT [4]: 1224 x10E3/uL | ALANINE AMINOTRANSFERASE [4]: 35.33 u/L | ALBUMIN [4]: 3.67 G/DL | ALKALINE PHOSPHATASE [4]: 386.67 u/L | ASPARTATE AMINOTRANSFERASE [4]: 62 u/L | BLOOD UREA NITROGEN [4]: 15 mg/dL | CHLORIDE [4]: 105.33 MEQ/L | CHOLESTEROL [4]: 74 mg/dL | CREATINE PHOSPHOKINASE [4]: 130.33 u/L | CREATININE [4]: 0.63 mg/dL | GLUCOSE [4]: 171 mg/dL | PHOSPHORUS [4]: 10.63 mg/dL | POTASSIUM [4]: 6.7 MEQ/L | SODIUM [4]: 150 MEQ/L | TOTAL BILIRUBIN [4]: 0.5 mg/dL | TOTAL PROTEIN [4]: 6.1 G/DL | BASOPHIL [5]: 0% | EOSINOPHIL [5]: 1% | ERYTHROCYTE COUNT [5]: 5.75 x10E6/uL | HEMATOCRIT [5]: 35.27% | HEMOGLOBIN [5]: 13.6 G/DL | LEUKOCYTE COUNT [5]: 10.47 x10E3/uL | LYMPHOCYTE [5]: 85% | MEAN CORPUSCULAR HEMOGLOBIN [5]: 23.63 pg | MEAN CORPUSCULAR HEMOGLOBIN CONCENTRATION [5]: 38.63 G/DL | MEAN CORPUSCULAR VOLUME [5]: 61.17 fL | MONOCYTE [5]: 1.33% | NEUTROPHIL [5]: 12.67% | PLATELET COUNT [5]: 1066.33 x10E3/uL | ALANINE AMINOTRANSFERASE [5]: 46 u/L | ALBUMIN [5]: 4.03 G/DL | ALKALINE PHOSPHATASE [5]: 373.67 u/L | ASPARTATE AMINOTRANSFERASE [5]: 68.33 u/L | BLOOD UREA NITROGEN [5]: 23.33 mg/dL | CHLORIDE [5]: 102.67 MEQ/L | CHOLESTEROL [5]: 70 mg/dL | CREATINE PHOSPHOKINASE [5]: 117 u/L | CREATININE [5]: 0.7 mg/dL | GLUCOSE [5]: 167 mg/dL | PHOSPHORUS [5]: 11.37 mg/dL | POTASSIUM [5]: 7.33 MEQ/L | SODIUM [5]: 146 MEQ/L | TOTAL BILIRUBIN [5]: 0.57 mg/dL | TOTAL PROTEIN [5]: 6.63 G/DL | BASOPHIL [6]: 0% | EOSINOPHIL [6]: 0% | ERYTHROCYTE COUNT [6]: 6.16 x10E6/uL | HEMATOCRIT [6]: 36.37% | HEMOGLOBIN [6]: 14.6 G/DL | LEUKOCYTE COUNT [6]: 18.57 x10E3/uL | LYMPHOCYTE [6]: 86% | MEAN CORPUSCULAR HEMOGLOBIN [6]: 23.73 pg | MEAN CORPUSCULAR HEMOGLOBIN CONCENTRATION [6]: 40.17 G/DL | MEAN CORPUSCULAR VOLUME [6]: 59.03 fL | MONOCYTE [6]: 1.33% | NEUTROPHIL [6]: 11.67% | PLATELET COUNT [6]: 1100.67 x10E3/uL | ALANINE AMINOTRANSFERASE [6]: 47.33 u/L | ALBUMIN [6]: 3.77 G/DL | ALKALINE PHOSPHATASE [6]: 450.67 u/L | ASPARTATE AMINOTRANSFERASE [6]: 62 u/L | BLOOD UREA NITROGEN [6]: 22.33 mg/dL | CHLORIDE [6]: 104.67 MEQ/L | CHOLESTEROL [6]: 76 mg/dL | CREATINE PHOSPHOKINASE [6]: 128.33 u/L | CREATININE [6]: 0.63 mg/dL | GLUCOSE [6]: 167.67 mg/dL | PHOSPHORUS [6]: 10.73 mg/dL | POTASSIUM [6]: 6.83 MEQ/L | SODIUM [6]: 148.33 MEQ/L | TOTAL BILIRUBIN [6]: 0.47 mg/dL | TOTAL PROTEIN [6]: 6.07 G/DL
